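Five compound concentrations were applied to cells in 96-well plates for 48 hours; endpoints were derived by simple linear interpolation of the resulting dose-response curve. GI50: concentration for 50% inhibition of growth.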 Active and inactive are the calls of the source. Rule as the data show it: active = GI50 up to about 1.1 µM and inactive = higher.
Columns and labels:
Assay in all cases: DTP human tumour cell line panel, 48 h
[1] = test system: ACHN
[2] = test system: BT-549
[3] = test system: COLO 205
[4] = test system: DU-145
[5] = test system: EKVX
[6] = test system: HCT-116
[7] = test system: Hs-578T
[8] = test system: IGROV-1
[9] = test system: MCF7
[10] = test system: MDA-MB-435
[11] = test system: NCI-H226
[12] = test system: OVCAR-5
[13] = test system: SF-539
[14] = test system: SK-MEL-28
[15] = test system: SNB-75
[16] = test system: SR
[17] = test system: T47D
[18] = test system: UO-31
[19] = test system: CCRF-CEM
[20] = test system: MDA-N

| Compound | GI50 [1] | GI50 [2] | GI50 [3] | GI50 [4] | GI50 [5] | GI50 [6] | GI50 [7] | GI50 [8] | GI50 [9] | GI50 [10] | GI50 [11] | GI50 [12] | GI50 [13] | GI50 [14] | GI50 [15] | GI50 [16] | GI50 [17] | GI50 [18] | GI50 [19] | GI50 [20] |
| --- | --- | --- | --- | --- | --- | --- | --- | --- | --- | --- | --- | --- | --- | --- | --- | --- | --- | --- | --- | --- |
| NCCSc1nc(-c2ccccc2)c(-c2ccccc2)o1 | > 100 µM (inactive) | > 100 µM (inactive) | > 100 µM (inactive) | > 100 µM (inactive) | > 100 µM (inactive) | 37.1 µM (inactive) | > 100 µM (inactive) | 71.4 µM (inactive) | > 100 µM (inactive) | > 100 µM (inactive) | > 100 µM (inactive) | > 100 µM (inactive) | > 100 µM (inactive) | > 100 µM (inactive) | 21 µM (inactive) | 7.38 µM (inactive) | 25.2 µM (inactive) | > 100 µM (inactive) |  |  |
| COc1cccc2c1C(=O)c1c(O)c3c(c(O)c1C2=O)C[C@@](O)(C(=O)CO)C[C@@H]3OC1CC(N(C)C)C(O)C(C)O1 (stereo partly specified) | < 0.01 µM (active) | 0.0537 µM (active) | < 0.01 µM (active) | 0.0519 µM (active) | 0.0415 µM (active) | < 0.01 µM (active) | < 0.01 µM (active) | < 0.0104 µM (active) |  | < 0.01 µM (active) | < 0.0149 µM (active) | 0.0643 µM (active) | < 0.01 µM (active) | 0.0227 µM (active) | 0.0155 µM (active) | < 0.01 µM (active) | < 0.01 µM (active) | 0.0204 µM (active) | 0.0991 µM (active) | < 0.01 µM (active) |
| O[C@H]1[C@@H]2OC[C@@H](O)[C@H](OCc3ccccc3)[C@@](COCc3ccccc3)(O2)[C@@H]1OCc1ccccc1 | 16.7 µM (inactive) | 17.7 µM (inactive) | 18.2 µM (inactive) | 18.5 µM (inactive) | 14.5 µM (inactive) | 20.1 µM (inactive) | 14.7 µM (inactive) | 13.9 µM (inactive) | 19.3 µM (inactive) | 17.3 µM (inactive) |  | 15.1 µM (inactive) | 15.5 µM (inactive) | 14.1 µM (inactive) | 2.39 µM (inactive) | 38.5 µM (inactive) |  | 16.7 µM (inactive) | 17.4 µM (inactive) | 15.4 µM (inactive) |
| Cn1c(=O)c2c(nc3n2CC(C(=O)O)N3)n(C)c1=O (stereo unspecified) | > 100 µM (inactive) | > 100 µM (inactive) | > 100 µM (inactive) | > 100 µM (inactive) | > 100 µM (inactive) | > 100 µM (inactive) | > 100 µM (inactive) | > 100 µM (inactive) | > 100 µM (inactive) | > 100 µM (inactive) | > 100 µM (inactive) | > 100 µM (inactive) | > 100 µM (inactive) | > 100 µM (inactive) | > 100 µM (inactive) |  | > 100 µM (inactive) | > 100 µM (inactive) |  | > 100 µM (inactive) |
| C1CSCCCSCCSCCCSC1 | > 100 µM (inactive) | > 100 µM (inactive) | > 100 µM (inactive) | > 100 µM (inactive) | > 100 µM (inactive) | > 100 µM (inactive) | > 100 µM (inactive) | > 100 µM (inactive) | > 100 µM (inactive) | > 100 µM (inactive) | > 100 µM (inactive) | > 100 µM (inactive) | > 100 µM (inactive) | > 100 µM (inactive) | > 100 µM (inactive) |  | > 100 µM (inactive) | > 100 µM (inactive) |  | > 100 µM (inactive) |
